According to US10150787B2, “TC-PTP inhibitors as APC activators for immunotherapy” (THE ROYAL INSTITUTION FOR THE ADVANCEMENT OF LEARNING / …, priority 2014, dated 2018):

Key:
[1] = test system: monocyte-derived DCs; assay: Mouse Dendritic Cell Assay (IL-12 production); assay type: cell-based; settings: for % increase in IL-12 production: 24 h IL-12 production following 6 days of DC incubation and maturation in the presence of 32 μM of test compound vs vehicle-treated cells; for potency in the IL-12 release assay (in words): IL-12 release assay shown in Example 12
Experimental: Mouse bone marrow cells were flushed from the femur and tibia into RPMI (supplemented with 10% FBS, gentamicin, HEPES, non-essential amino acids) using a syringe equipped with a 23 gauge needle. Clumps were dispersed by gently passing the cell suspension several times through the syringe. Any remaining clumps of cells and debris were removed by passing cell suspension through a 70 μM nylon strainer. The suspension was centrifuged (300×g for 10 mins), the supernatant was discarded and the cells were resuspended in 5 ml of red cell lysis buffer (SIGMA). The cells were counted and mouse monocytes cells (CD11b+) were isolated according to the instructions for positive selection of CD11 b cells (Stemcell technologies). The cells were then resuspended in RPMI media supplemented with 10% FBS, gentamicin, Hepes and non-essential aminoacids (aa) and treated with 40 ng/ml of recombinant mouse GM-CSF and IL-4 (Peprotech). Mouse monocytes were plated at 1×10^6 cells/mL. The cells were incubated for 6 days at 37° C., 5% CO2 in a humidified incubator in the presence of different concentrations of the compounds (0-32 μM). The media was changed every three days by removing half of the media from the plate and replenishing with the same volume of fresh media supplemented with cytokines and the test compounds at the same concentrations.
Immature monocyte-derived DCs may be incubated with a DC maturation cocktail containing the test compounds and incubated for an additional 24-72 hours. There are many DC maturation cocktails identified in the literature, with the “gold standard” consisting of 10 ng/ml TNF-α, 10 ng/ml IL-1β, 1000 units/ml IL-6 and 1 μg/mL PGE2. Alternatively, MPLA (10 μg/mL) and IFNγ (500 U/ml, Peprotech, for clinical research) has also been used. For the data shown in Example 12, the immature monocyte-derived DCs were cultured with LPS (1 μg/mL)) for 48 hours to induce maturation. Test compounds were included in the maturation cocktail at concentrations varying between 1 and 32 μM.
(§1) Characteristics of the mature DCs can be determined by a number of assays including flow cytometry analysis of the surface markers expressed on DCs, the cytokine production profile of activated DCs, antigen presentation assay and in vivo experiments to assess the DC-mediated antitumor response and cancer immunity.

[2] = molecular target: TC-PTP (Homo sapiens (Human), UniProt P17706); assay: Enzyme Assay for TC-PTP; assay type: biochemical; settings: inhibition of TC-PTP enzymatic activity
Experimental: 1) Enzyme Assay for TC-PTP
• Assay buffer: 50 mM Bis-Tris (pH=6.3) • 2 mM EDTA • 5 mM N,N′-dimethyl-N,N′-bis(mercaptoacetyl)hydrazine (DMH) • Substrate: 10 mM fluorescein diphosphate (FOP) store at −20° C. (also can use 10 mM DiFMUP) • Enzyme dilution buffer: 50 mM Bis-Tris (pH=6.3) • 2 mM EDTA • 5 mM DMH • 20% (v/v) glycerol • 0.01% Triton X-100
The assay was carried out at room temperature in 96 well plates. The reaction mixture in 170 μl contained 50 mM Bis-Tris (pH=6.3), 2 mM EDTA, 5 mM N,N′-dimethyl-N,N′bis(mercaptoacetyl)hydrazine (DMH) and 10 μM fluorescein diphosphare (FDP) or 6,8-difluoro-4-methylumbelliferyl phosphate (DiFMUP). 10 μl of 10 concentrations (serial dilution) of the test compound (inhibitor) dissolved in DMSO or DMSO alone for control was added to each well and the plate was mixed for 2 min. The reaction was initiated by adding 20 μl of diluted TC-PTP (50 nM for FDP, 0.5 nM for DiFMUP in 50 mM Bis/Tris (pH=6.3), 2 mM EDTA, 5 mM DMH, 20% glycerol and 0.01% Triton X-100. The phosphatase activity was followed by monitoring the appearance of the fluorescent product fluorescein monophosphate (FMP) or 6,8-difluoro-7-hydroxyl-4-coumarin (DiFMU) continuously for 15-30 min, using the Spectromax Gemini fluorescent plate reader ([…]) with excitation of 440 nm and emission at 530 nm (cutoff filter at 525 nm) for FDP and excitation at 360 nm and emission at 450 nm (cutoff filter at 435 nm) for DiFMUP. All the assays were done at least in duplicate. The initial rate of FMP or DiFMU formation is plotted against the concentration of inhibitor and the data was fitted to 4-parameter equation and the inflection point of the fit is the IC50.

[3] = test system: EG7 lymphoma cells; assay: Mouse Syngeneic Tumor Model, treated with inhibitor-activated mature dendritic cells; assay type: in vivo; settings: tumor volume in mice 28 days following a single treatment of mature dendritic cells activated by the compound; Example 5 vs Example 6
Source text: A novel dual reporter (GFP & luciferase) MSCV based plasmid was creating by subcloning from two commercially available constructs (addgene 19360: pLenti pgk and addgene 18751: MSCV-IRES-GFP). This construct was used to generate retrovirus for infection of EG7 lymphoma cells (ATCC#CRL-2133). EG7-ova expressing cells are a commonly used model for T cell lymphoma engineered to express the ovalbumin antigen making them useful in immunological and drug discovery applications. These cells were then GFP sorted at the McGill University Life Sciences Complex flow cytometry core (BD FACscalibur) prior to subcutaneous implantation (5×10^5 cells) in syngeneic C57bl6 mice (Harlan). Tumors were allowed to establish in the mice and then were imaged ten days post implantation (Perkin Elmer IVIS100) and luminescence was quantified using IVIS software. Mice were then treated on day 10 post injection with 2×10^6 ex vivo-derived and inhibitor-treated mature dendritic cells (IP injection) (see ex vivo activation of monocyte derived DC with PTP inhibitor). Ovalbulim was added to DC cultures during maturation at a concentration of 2.5 mg/mL. Following maturation, DCs were harvested by gently resuspending with phosphate-buffered saline to dislodge any loosely attached cells. Cells were then spun down and washed twice with phosphate-buffered saline. […]

[4] = test system: dendritic cells derived from monocytes taken from human pancreatic cancer patients; assay: Human Dendritic Cell Assay (IL-12 release); assay type: cell-based; settings: DCs matured in the presence of the compound vs the same cells matured without it
Experimental: A sample of human blood was diluted with an equal volume of PBS plus 2% FBS. The diluted blood was layered on top of Lymphoprep (Stemcell technologies) being careful to minimize the mixing of the blood with Lymphoprep. The mixture was centrifuged at 800×g for 20 minutes at room temperature with brake off. If the blood had been stored for more than 2 hours, the centrifugation time was increased to 30 minutes. The upper plasma layer was then removed and discarded without disturbing the plasma-lymphoprep interface. The mononuclear cell layer (PMBC) at the plasma-lymphoprep interface was removed and retained without disturbing the erythrocyte/granulocyte pellet. The mononuclear cells were washed once with media and the CD14+ cells were isolated according to the instructions for the positive selection of CD14+ kit (Stemcell technologies). The resulting CD14+ cells were cultured in PromoCell monocyte attachment media (PromoCell). Cells were plated at 0.5×10^6 cells/cm^2 and incubated for 1 h at 5% CO2 and 37° C. in a humidified incubator. […]
as §1

Chain of TC-PTP (P17706 whole entry, species assumed): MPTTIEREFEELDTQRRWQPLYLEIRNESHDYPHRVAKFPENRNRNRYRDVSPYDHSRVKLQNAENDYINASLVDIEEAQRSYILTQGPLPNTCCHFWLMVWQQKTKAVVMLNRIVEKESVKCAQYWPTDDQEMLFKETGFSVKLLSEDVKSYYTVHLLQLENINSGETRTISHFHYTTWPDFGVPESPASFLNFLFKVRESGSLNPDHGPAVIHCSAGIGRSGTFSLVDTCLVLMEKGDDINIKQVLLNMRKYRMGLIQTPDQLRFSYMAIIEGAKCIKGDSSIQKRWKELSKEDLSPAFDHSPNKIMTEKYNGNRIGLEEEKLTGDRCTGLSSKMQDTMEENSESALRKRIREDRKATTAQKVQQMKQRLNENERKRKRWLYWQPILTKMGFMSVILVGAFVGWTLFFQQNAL

| Compound | % increase in IL-12 production [1] [%] | IC50 [2] [nM] | efficacy at reducing tumor volume [3] | potency in the IL-12 release assay (in words) [1] | release of IL-12 [4] |
| --- | --- | --- | --- | --- | --- |
| CCOC(=O)c1cc2cc(C(F)(F)P(=O)(O)O)c(Br)cc2s1 [Ex. 1, ((6-Bromo-2-(Ethoxycarbonyl)Benzo[b]Thiophen-5-yl)Difluoromethyl)Phosphonate] | 161 | 450 |  |  |  |
| O=C(O)c1cc2cc(C(F)(F)P(=O)(O)O)c(Br)cc2s1 [Ex. 2, 6-Bromo-5-(Difluoro(Phosphonato)Methyl)Benzo[b]Thiophene-2-Carboxylate] | 143 | 260 |  |  |  |
| NC(=O)c1cc2cc(C(F)(F)P(=O)(O)O)c(Br)cc2s1 [Ex. 3, ((6-Bromo-2-Carbamoylbenzo[b]Thiophen-5-yl)Difluoromethyl)Phosphonate] | 130 | 280 |  |  |  |
| N#Cc1cc2cc(C(F)(F)P(=O)(O)O)c(Br)cc2s1 [Ex. 4, ((6-Bromo-2-Cyanobenzo[b]Thiophen-5-yl)Difluoromethyl)Phosphonate] | 85 | 1200 |  |  |  |
| O=P(O)(O)C(F)(F)c1cc2cc(CO)sc2cc1Br [Ex. 5, ((6-Bromo-2-(Hydroxymethyl)Benzo[b]Thiophen-5-yl)Difluoromethyl)Phosphonate] | 144 | 1500 | greater efficacy at reducing tumor volume | potent |  |
| N#CCc1cc2cc(C(F)(F)P(=O)(O)O)c(Br)cc2s1 [Ex. 6, ((6-Bromo-2-(Cyanomethyl)Benzo[b]Thiophen-5-yl)Difluoromethyl)Phosphonate] | 60 | 370 |  | less potent |  |
| CCOC(=O)c1cc2cc(Br)c(C(F)(F)P(=O)(O)O)cc2s1 [Ex. 7, ((5-Bromo-2-(Ethoxycarbonyl)Benzo[b]Thiophen-6-yl)Difluoromethyl)Phosphonate] | 171 | 740 |  |  | greater release of IL-12 |
| COC(=O)c1cc2cc(Br)c(C(F)(F)P(=O)(O)O)cc2s1 [Ex. 8, ((5-Bromo-2-(Methoxycarbonyl)Benzo[b]Thiophen-6-yl)Difluoromethyl)Phosphonate] |  | 2900 |  |  |  |
| O=C(O)c1cc2cc(Br)c(C(F)(F)P(=O)(O)O)cc2s1 [Ex. 9, ((5-Bromo-2-(Carboxy)Benzo[b]Thiophen-6-yl)Difluoromethyl)Phosphonate] |  | 170 |  |  |  |
| N#Cc1ccc2cc(Br)c(C(F)(F)P(=O)(O)O)cc2c1 [Ex. 10, [(3-Bromo-7-Cyano-2-Naphthyl)(Difluoro)Methyl]Phosphonate] | 42 | 490 |  |  |  |
